Consider eleven compounds from PubChem BioAssay (NCI).

Among the test systems are BT-549 breast; HL-60(TB) leukemia; IGROV1 ovarian; K-562 leukemia; MDA-MB-231 breast; SF-295 CNS; SF-539 CNS; SR leukemia; UACC-257 melanoma; UACC-62 melanoma.
Common to all, as to assay: NCI-60 cell line screen, 48 h

Values joined by “and” are separate entries in the source; they are usually repeats but may differ in a detail not shown here. Identical values can stand only once.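 Test compounds were applied to cells in 96-well plates for 48 hours at 5 doses. Here, GI50 denotes the concentration required for 50% inhibition of growth. TGI: total growth inhibition.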 Some results are limits rather than exact numbers.

Take `O=C1CN2CCC1C/C2=C\c1ccnc2c(Cl)cccc12` (centres undefined): the GI50 was above 100000 nM with BT-549 breast; 67.4 µM in the experiment on HL-60(TB) leukemia; 34 µM in the experiment with IGROV1 ovarian; 32200 nM with K-562 leukemia; 88.8 µM in the experiment on MDA-MB-231 breast; 46.5 µM with SF-295 CNS. The GI50 was above 100000 nM in the experiment on SF-539 CNS, 36500 nM in the experiment on SR leukemia, 59.7 µM in the experiment on UACC-257 melanoma and above 100 µM with UACC-62 melanoma. The TGI in the experiment with BT-549 breast, in the experiment on HL-60(TB) leukemia, in the experiment on IGROV1 ovarian, in the experiment with K-562 leukemia, in the experiment on MDA-MB-231 breast and in the experiment with SF-295 CNS was above 100 µM throughout. In addition, the TGI with SF-539 CNS, with SR leukemia, in the experiment with UACC-257 melanoma and in the experiment with UACC-62 melanoma was above 100 µM each time.
For `COc1cc(N)ccc1Nc1c2ccccc2nc2ccccc12`, the GI50 is 15300 nM in the experiment with BT-549 breast; 5.49 µM in the experiment with HL-60(TB) leukemia; 10.2 µM in the experiment with IGROV1 ovarian; 3450 nM in the experiment with K-562 leukemia; 13.1 µM in the experiment on MDA-MB-231 breast; 12 µM with SF-295 CNS. Further, the GI50 is 12100 nM in the experiment on SF-539 CNS, 2110 nM in the experiment on SR leukemia, 20.2 µM in the experiment on UACC-257 melanoma and 12.9 µM in the experiment with UACC-62 melanoma. Also, the TGI in the experiment on BT-549 breast was 32.4 µM; in the experiment with HL-60(TB) leukemia it was 18.5 µM; in the experiment with IGROV1 ovarian, above 59.4 µM; in the experiment on K-562 leukemia it was above 28.8 µM; with MDA-MB-231 breast, 28.6 µM; in the experiment with SF-295 CNS it was 30.1 µM. The TGI is 26.5 µM with SF-539 CNS, above 32.5 µM in the experiment with SR leukemia, 44 µM with UACC-257 melanoma and 31.2 µM with UACC-62 melanoma.
As for `COc1cc(/C=C/C(=O)CC(=O)/C=C/c2ccc(OC(=O)CCNC34CC5CC(CC(C5)C3)C4)c(OC)c2)ccc1OC(=O)CCNC12CC3CC(CC(C3)C1)C2`, the GI50 is 2400 nM with BT-549 breast; 2.27 µM in the experiment with HL-60(TB) leukemia; 3.52 µM in the experiment on IGROV1 ovarian; 4410 nM with K-562 leukemia; 3.97 µM in the experiment with MDA-MB-231 breast; 2.56 µM with SF-295 CNS. Also, the GI50 in the experiment on SF-539 CNS is 2090 nM; in the experiment with SR leukemia, 2370 nM; in the experiment on UACC-257 melanoma it was 4.24 µM; in the experiment with UACC-62 melanoma, 3.5 µM. In addition, the TGI in the experiment on BT-549 breast was 7.67 µM; in the experiment on HL-60(TB) leukemia, 9.27 µM; in the experiment with IGROV1 ovarian it was 8.08 µM; with K-562 leukemia, above 100 µM; in the experiment on MDA-MB-231 breast, 25.3 µM; with SF-295 CNS, 6.99 µM. Besides, the TGI is 4.81 µM with SF-539 CNS, 8.84 µM with SR leukemia, 19.4 µM in the experiment with UACC-257 melanoma and 13 µM with UACC-62 melanoma.
Take `CN1CCN(Cc2ccc(NC(=O)c3[nH]ncc3Nc3ccnc4ccsc34)cc2)CC1`: the GI50 in the experiment with BT-549 breast was 4300 nM; in the experiment with HL-60(TB) leukemia, 2.49 µM; in the experiment on IGROV1 ovarian, 2.82 µM; in the experiment on K-562 leukemia, 2470 nM; in the experiment with MDA-MB-231 breast, 3.56 µM; in the experiment on SF-295 CNS, 3.73 µM. Moreover, the GI50 in the experiment with SF-539 CNS is 1350 nM; in the experiment on SR leukemia it was 1920 nM; in the experiment on UACC-257 melanoma, 11.6 µM; in the experiment with UACC-62 melanoma, 11.2 µM. The TGI is 15.9 µM in the experiment with BT-549 breast; 5.85 µM in the experiment with HL-60(TB) leukemia; 16.7 µM in the experiment with IGROV1 ovarian; above 100 µM in the experiment with K-562 leukemia; 9.71 µM in the experiment with MDA-MB-231 breast; 14.2 µM with SF-295 CNS. The TGI with SF-539 CNS worked out at 3.42 µM; in the experiment on SR leukemia it was 7 µM; in the experiment on UACC-257 melanoma it was 30 µM; in the experiment with UACC-62 melanoma, 30.2 µM.
Turning to `Cc1cc(-c2cc(C)c(O)c(C(C)(C)C)c2)cc(C(C)(C)C)c1O`, the TGI with BT-549 breast is 27.6 µM and 26.5 µM; in the experiment on HL-60(TB) leukemia it was 26.7 µM and 32.7 µM; with IGROV1 ovarian, 41.6 µM and 24.3 µM; with K-562 leukemia it was 25.4 µM and 37.5 µM; in the experiment on MDA-MB-231 breast it was 21.4 µM and 26.2 µM; with SF-295 CNS, 23.1 µM and 23.2 µM. Further, the TGI with SF-539 CNS is 28.2 µM and 35.4 µM; in the experiment with SR leukemia it was 18.1 µM; in the experiment on UACC-257 melanoma, 24.1 µM and 24.7 µM; with UACC-62 melanoma, 26.1 µM and 26.8 µM.
In the case of `O=C(c1cccs1)c1c(C(F)(F)F)n([O-])c2cc(C(F)(F)F)ccc2[n+]1=O`, the GI50 with BT-549 breast was 188 nM; in the experiment with HL-60(TB) leukemia, below 0.0236 µM; in the experiment on IGROV1 ovarian, 0.29 µM; with K-562 leukemia it was 30.3 nM; in the experiment with MDA-MB-231 breast, 0.177 µM; in the experiment with SF-295 CNS, 0.322 µM. Also, the GI50 in the experiment on SF-539 CNS was 195 nM; with SR leukemia it was 17.6 nM; in the experiment with UACC-257 melanoma it was 0.662 µM; in the experiment with UACC-62 melanoma, 0.462 µM. For the same compound, the TGI in the experiment with BT-549 breast was 0.367 µM; in the experiment with HL-60(TB) leukemia, 0.135 µM; in the experiment on IGROV1 ovarian it was 0.848 µM; in the experiment on K-562 leukemia, 0.101 µM; in the experiment on MDA-MB-231 breast it was 0.345 µM; with SF-295 CNS it was 0.889 µM. In addition, the TGI in the experiment on SF-539 CNS came to 0.409 µM; in the experiment on SR leukemia, 0.0833 µM; with UACC-257 melanoma, 1.82 µM; in the experiment on UACC-62 melanoma, 1.28 µM.
`COc1cc(-c2ccc(-[n+]3nc(-c4ccc([N+](=O)[O-])cc4)nn3-c3ccc([N+](=O)[O-])cc3)c(OC)c2)ccc1-[n+]1nc(-c2ccc([N+](=O)[O-])cc2)nn1-c1ccc([N+](=O)[O-])cc1`: the GI50 with BT-549 breast was 6210 nM; in the experiment on HL-60(TB) leukemia, 1.91 µM; in the experiment on IGROV1 ovarian it was 0.707 µM; with K-562 leukemia it was 3390 nM; with MDA-MB-231 breast, 8.6 µM; in the experiment with SF-295 CNS it was 3.07 µM. In addition, the GI50 in the experiment on SF-539 CNS was 1800 nM; in the experiment with SR leukemia it was 30400 nM; with UACC-257 melanoma it was 2.83 µM; in the experiment with UACC-62 melanoma it was 22 µM. In addition, the TGI was 70.8 µM with BT-549 breast; above 46.2 µM with HL-60(TB) leukemia; 51.7 µM in the experiment on IGROV1 ovarian; above 44.6 µM in the experiment with K-562 leukemia; 34.7 µM in the experiment with MDA-MB-231 breast; 16.1 µM in the experiment on SF-295 CNS. For the same compound, the TGI in the experiment with SF-539 CNS was 3.97 µM; in the experiment with SR leukemia, above 100 µM; with UACC-257 melanoma, 12 µM; in the experiment on UACC-62 melanoma it was above 82.8 µM.
Take `O=C(Nc1cccc(-c2nc3ccccc3[nH]2)c1)c1cccc(NC(=O)c2ccco2)c1`: the GI50 with BT-549 breast is 1850 nM; with HL-60(TB) leukemia, 5.43 µM; in the experiment with IGROV1 ovarian, 5.34 µM; in the experiment with K-562 leukemia, 2030 nM; with MDA-MB-231 breast it was 1.98 µM; in the experiment on SF-295 CNS, 1.92 µM. For the same compound, the GI50 in the experiment with SF-539 CNS is 1490 nM; in the experiment on SR leukemia, 2330 nM; in the experiment with UACC-257 melanoma it was 2.3 µM; in the experiment on UACC-62 melanoma it was 1.79 µM. Besides, the TGI turned out to be 3.92 µM in the experiment with BT-549 breast; 17.4 µM in the experiment on HL-60(TB) leukemia; 17 µM in the experiment with IGROV1 ovarian; 4.36 µM with K-562 leukemia; 4.85 µM in the experiment with MDA-MB-231 breast; 4.41 µM in the experiment on SF-295 CNS. In addition, the TGI with SF-539 CNS was determined as 2.88 µM; in the experiment on SR leukemia, 6.53 µM; with UACC-257 melanoma it was 5.34 µM; in the experiment on UACC-62 melanoma it was 3.5 µM.
In the case of `N#C/C(=C\c1ccc(Cl)cc1)n1nnc2cc(F)c(F)cc21`, the GI50 with BT-549 breast was 1740 nM; with HL-60(TB) leukemia, 2.36 µM; in the experiment with IGROV1 ovarian, 1.97 µM; in the experiment with K-562 leukemia, 2190 nM; with MDA-MB-231 breast it was 1.85 µM; in the experiment with SF-295 CNS, 2.26 µM. The GI50 with SF-539 CNS was 1970 nM; in the experiment on SR leukemia, 1330 nM; with UACC-257 melanoma, 2.14 µM; in the experiment on UACC-62 melanoma, 1.8 µM. In addition, the TGI with BT-549 breast was 3.43 µM; with HL-60(TB) leukemia it was 6.82 µM; in the experiment with IGROV1 ovarian, 4.46 µM; with K-562 leukemia, above 100 µM; with MDA-MB-231 breast, 4.47 µM; with SF-295 CNS it was 5.53 µM. Further, the TGI with SF-539 CNS is 3.77 µM; with SR leukemia it was above 100 µM; with UACC-257 melanoma, 5.58 µM; with UACC-62 melanoma, 3.96 µM.
As for `CNC(=O)c1ccc(Nc2nc(OC3CCCC3)c3c(-c4ccc5nc(C)oc5c4)c[nH]c3n2)c(OC)c1`, the GI50 was 2040 nM with BT-549 breast; 29.2 µM in the experiment with HL-60(TB) leukemia; 0.448 µM with IGROV1 ovarian; 746 nM with K-562 leukemia; 14 µM in the experiment with MDA-MB-231 breast; 332 nM with SF-539 CNS. Also, the GI50 in the experiment with SR leukemia was 86.1 nM; with UACC-257 melanoma it was above 100 µM; in the experiment on UACC-62 melanoma, 2.58 µM. Further, the TGI with BT-549 breast, in the experiment with HL-60(TB) leukemia, in the experiment with IGROV1 ovarian, with K-562 leukemia, with MDA-MB-231 breast and with SF-295 CNS was above 100 µM throughout. Further, the TGI in the experiment with SF-539 CNS, in the experiment with SR leukemia, with UACC-257 melanoma and in the experiment on UACC-62 melanoma was above 100 µM each time.
On to `O=C(CSc1nc2sc3c(c2c(=O)n1-c1ccccc1)CCCCC3)N/N=C/c1ccc(F)cc1`, for which the GI50 with BT-549 breast is 3660 nM; with HL-60(TB) leukemia, above 100 µM; in the experiment with IGROV1 ovarian, 3.32 µM; with K-562 leukemia, 5480 nM; in the experiment on MDA-MB-231 breast it was 1.04 µM; in the experiment with SF-295 CNS it was 3.8 µM. In addition, the GI50 was 1850 nM in the experiment with SF-539 CNS, 357 nM in the experiment on SR leukemia, 7.54 µM in the experiment with UACC-257 melanoma and 11.4 µM with UACC-62 melanoma. In addition, the TGI was 17.8 µM in the experiment with BT-549 breast; above 100 µM in the experiment on HL-60(TB) leukemia; 19.2 µM in the experiment on IGROV1 ovarian; above 100 µM with K-562 leukemia; 3.27 µM in the experiment with MDA-MB-231 breast; 14.7 µM in the experiment on SF-295 CNS. In addition, the TGI in the experiment on SF-539 CNS is 3.53 µM; in the experiment on SR leukemia, 6.17 µM; with UACC-257 melanoma, above 100 µM; with UACC-62 melanoma it was 27.1 µM.
